Measurements published in US9359338B2, “Cyclopropanecarboxamido-substitute aromatic compounds as anti-tumor agents” (Crown Bioscience Inc. (Taiwan), priority 2012, dated 2016).
Like-named read-outs stand apart in the source and are kept apart here.

Assays:
PLC-PRF-5 cells = assay: Inhibition of proliferation of PLC-PRF-5 cells (ATPlite); assay type: cell-based; details: Homo sapiens
In short: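 PLC-PRF-5 cells in DMEM/10% FBS, seeded 2 h before compound; 8-point 3-fold dilutions from 30 μM final top, 0.3% DMSO. After 96 h at 37 °C, 5% CO2, ATP content read by ATPlite luminescence; IC50 calculated.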

B-Raf kinase = B-Raf kinase (Homo sapiens (Human), UniProt P15056); assay: Inhibitory activity at B-Raf kinase (ADP-GLO assay); assay type: biochemical
B-Raf kinase, sequence (P15056 416-766): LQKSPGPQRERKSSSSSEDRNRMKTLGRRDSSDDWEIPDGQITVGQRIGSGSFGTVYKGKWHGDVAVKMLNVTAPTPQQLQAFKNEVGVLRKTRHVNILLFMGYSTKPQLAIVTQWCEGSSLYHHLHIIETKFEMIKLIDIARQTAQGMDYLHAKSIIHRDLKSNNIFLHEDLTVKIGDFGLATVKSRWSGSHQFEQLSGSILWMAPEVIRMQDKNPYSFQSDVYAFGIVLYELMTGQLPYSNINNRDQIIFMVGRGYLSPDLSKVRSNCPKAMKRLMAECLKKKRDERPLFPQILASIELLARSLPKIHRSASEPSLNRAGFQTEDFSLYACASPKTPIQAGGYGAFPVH
Protocol: Inhibitory Activity of Compounds at B-Raf Kinase
• [Experimental method]: Use ADP-GLO™ assay kit from Promega to evaluate the inhibitory activity of compounds at B-Raf • [Instrument]: PerKinElmer's ENVISION plate reader • [Material]: Optiplate-384 well plate (PerKinElmer), kinase buffer (50 mM Hepes pH7.5, 1 mM EGTA, 2 mM DTT, 10 mM Mg^2+, 0.05% BSA), B-Raf kinase (Millipore, catalogue #14-530-K), GST-MEK1 substrate (Carna, catalogue #07-141-10), Super pure ATP (Promega), ADP-GLO™ assay kit (Promega, catalogue # V9102), DMSO (Sigma, catalogue #34869), purified water (Millipore, type: Milli-Q). • [Study conditions]: Mix B-Raf kinase (final concentration: 5 nM) and compound (DMSO final concentration: 0.25%) and preincubate at 30° C. for 20 min, then add ATP (final concentration: 6 μM) and reaction substrate (final concentration: 30 nM), React for 2 hrs at 30° C. After reaction, add ADP-GLO™ reagent, react for 40 min at room temperature, then add ADP-GLO™ detecting agent, react for 30 min at room temperature. After that, use ENVSION to measure the […]. • [Samples]: Compounds in the examples and Sorafenib (positive control) • [Data analysis]: Use CBIS data analysis software to calculate IC50 values

KDR kinase (790-1356 AA) = KDR kinase (790-1356 AA) (Homo sapiens (Human), UniProt P35968); assay: Inhibitory activity at KDR kinase (Lance Ultra Ulight-TK assay); assay type: biochemical
KDR kinase (790-1356 AA), sequence (P35968 790-1356): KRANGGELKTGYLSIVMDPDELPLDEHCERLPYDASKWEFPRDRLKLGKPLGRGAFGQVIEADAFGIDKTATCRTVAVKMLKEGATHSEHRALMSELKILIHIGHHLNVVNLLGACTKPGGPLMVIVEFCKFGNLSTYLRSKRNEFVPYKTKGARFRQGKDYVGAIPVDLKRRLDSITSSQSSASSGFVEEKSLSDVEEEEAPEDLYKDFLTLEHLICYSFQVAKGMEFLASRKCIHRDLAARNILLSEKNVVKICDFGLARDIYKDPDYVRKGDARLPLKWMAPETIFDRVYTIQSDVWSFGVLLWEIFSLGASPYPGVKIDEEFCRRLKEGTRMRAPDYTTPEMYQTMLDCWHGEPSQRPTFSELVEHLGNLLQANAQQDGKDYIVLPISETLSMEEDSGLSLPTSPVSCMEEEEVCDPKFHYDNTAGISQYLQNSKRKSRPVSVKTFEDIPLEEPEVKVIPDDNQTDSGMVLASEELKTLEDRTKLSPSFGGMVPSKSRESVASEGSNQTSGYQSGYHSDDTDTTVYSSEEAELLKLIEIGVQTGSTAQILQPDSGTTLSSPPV
In short: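 TR-FRET (Eu-anti-phosphotyrosine PT66) with 20 nM KDR preincubated with compound 20 min at 30 °C in HEPES pH 7.5 buffer with Mg2+/Mn2+, 0.5% DMSO.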

pERK in MDA-MB-231 cells = assay: Inhibitory activity at pERK (In Cell Western, MDA-MB-231 cells); assay type: cell-based; details: Homo sapiens
In short: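 MDA-MB-231 cells were treated 2 h at 37 °C with 8 compound concentrations in 3-fold dilutions from 30 μM top (0.3% DMSO, DMEM with 0.1% BSA). Cells were then fixed, methanol-permeabilized and immunostained for pERK with PI counterstain. Fluorescence was read on Acumen and IC50 calculated.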

[1] = PLC-PRF-5, PLC-PRF-5 cells, read-out: PLC-PRF-5 cell proliferation IC50
[2] = MDA-MB-231, MDA-MB-231 cells, read-out: MDA-MB-231 pERK IC50

Row | Compound | IC50 (PLC-PRF-5 cells; [1]) [nM] | IC50 (B-Raf kinase) [nM] | IC50 (KDR kinase (790-1356 AA)) [nM] | IC50 (pERK in MDA-MB-231 cells; [2]) [nM] | IC50 (PLC-PRF-5 cells; PLC-PRF-5, read-out: PLC-PRF-5 cell proliferation IC50) [nM] | IC50 (pERK in MDA-MB-231 cells; MDA-MB-231, read-out: MDA-MB-231 pERK IC50) [nM]
1 | O=C(Nc1ccc(Oc2ccnc(NC(=O)C3CC3)c2)cc1)Nc1ccc(F)c(C(F)(F)F)c1 [Exe. 138] | 1510 | 26 | 10.5 | 9.1 | – | –
2 | N#Cc1ccc(NC(=O)Nc2ccc(Oc3ccnc(NC(=O)C4CC4)c3)cc2)cc1C(F)(F)F [Exe. 139] | – | 13 | 10 | – | 654 | 10.9
3 | O=C(Nc1ccc(Oc2ccnc(NC(=O)C3CC3)c2)cc1)Nc1cc(F)cc(C(F)(F)F)c1 [Exe. 141] | 642 | 125 | 7.1 | 40.4 | – | –
4 | O=C(Nc1ccc(Oc2ccnc(NC(=O)C3CC3)c2)cc1)Nc1cc(C(F)(F)F)ccc1Cl [Exe. 142] | 642 | 39 | 10.4 | 13.9 | – | –
5 | CN1CCC(c2cc(NC(=O)Nc3ccc(Oc4ccnc(NC(=O)C5CC5)c4)cc3)cc(C(F)(F)F)c2)CC1 [Exe. 143] | 892 | 5.5 | 9.5 | 13.4 | – | –
6 | O=C(Nc1ccc(Oc2ccnc(NC(=O)C3CC3)c2)cc1)Nc1cccc(C(F)(F)F)c1 [Exe. 144] | 403 | 30 | 11.4 | 6 | – | –
7 | CS(=O)(=O)c1cc(NC(=O)Nc2ccc(Oc3ccnc(NC(=O)C4CC4)c3)cc2)cc(C(F)(F)F)c1 [Exe. 145] | 1670 | 5.1 | 7.6 | 20.7 | – | –
8 | O=C(Nc1ccc(Oc2ccnc(NC(=O)C3CC3)c2)cc1)Nc1cccc(OC(F)(F)F)c1 [Exe. 146] | 689 | 14 | 7.8 | 11.4 | – | –
9 | CC(F)(F)c1ccnc(NC(=O)Nc2ccc(Oc3ccnc(NC(=O)C4CC4)c3)cc2)c1 [Exe. 147] | 1160 | 15 | 11.1 | 23.8 | – | –
10 | CC(F)(F)c1ccc(F)c(NC(=O)Nc2ccc(Oc3ccnc(NC(=O)C4CC4)c3)cc2)c1 [Exe. 148] | 240 | 16 | 6.2 | 7.7 | – | –
11 | CC(F)(F)c1cc(NC(=O)Nc2ccc(Oc3ccnc(NC(=O)C4CC4)c3)cc2)ccc1Cl [Exe. 149] | 800 | 38 | 25.4 | 25.4 | – | –
12 | O=C(Nc1ccc(Oc2ccnc(NC(=O)C3CC3)c2)cc1)Nc1ccc2c(c1)C(F)(F)CCO2 [Exe. 151] | 608 | 3.3 | 4.5 | 3.6 | – | –
13 | N#Cc1cc(NC(=O)Nc2ccc(Oc3ccnc(NC(=O)C4CC4)c3)cc2)cc(C(F)(F)F)c1 [Exe. 152] | 390 | 72 | 7.1 | 33 | – | –
14 | O=C(Nc1ccc(Oc2ccnc(NC(=O)C3CC3)c2)c(F)c1)Nc1ccc(F)c(C(F)(F)F)c1 [Exe. 153] | 735 | 32 | 15.2 | 23 | – | –
15 | O=C(Nc1ccc(Oc2ccnc(NC(=O)C3CC3)c2)c(F)c1)Nc1cc(C(F)(F)F)ccc1F [Exe. 156] | 52 | 37 | 8.3 | 37.7 | – | –
16 | O=C(Nc1ccc(Oc2ccnc(NC(=O)C3CC3)c2)c(F)c1)Nc1cc(C(F)(F)F)ccc1Cl [Exe. 157] | 156 | 43 | 5.9 | 34.7 | – | –
17 | O=C(Nc1cc(-c2ccncc2)cc(C(F)(F)F)c1)Nc1ccc(Oc2ccnc(NC(=O)C3CC3)c2)c(F)c1 [Exe. 159] | 642 | 35.4 | 8 | 44.3 | – | –
18 | CN1CCC(Nc2cc(NC(=O)Nc3ccc(Oc4ccnc(NC(=O)C5CC5)c4)c(F)c3)cc(C(F)(F)F)c2)CC1 [Exe. 161] | 1340 | 7.9 | 12.2 | 86.9 | – | –
19 | CC1CN(c2cc(NC(=O)Nc3ccc(Oc4ccnc(NC(=O)C5CC5)c4)c(F)c3)cc(C(F)(F)F)c2)CCO1 (centres unmarked) [Exe. 162] | 330 | 22.5 | 6.8 | 30.6 | – | –

Row | Compound | IC50 (PLC-PRF-5 cells; [1]) [nM] | IC50 (B-Raf kinase) [nM] | IC50 (KDR kinase (790-1356 AA)) [nM] | IC50 (pERK in MDA-MB-231 cells; [2]) [nM] | IC50 (PLC-PRF-5 cells; PLC-PRF-5, read-out: PLC-PRF-5 cell proliferation IC50) [nM] | IC50 (pERK in MDA-MB-231 cells; MDA-MB-231, read-out: MDA-MB-231 pERK IC50) [nM]
20 | C=CC(=O)Nc1cc(NC(=O)Nc2ccc(Oc3ccnc(NC(=O)C4CC4)c3)c(F)c2)cc(C(F)(F)F)c1 [Exe. 163] | 998 | 24 | 11.6 | 32.9 | – | –
21 | CN1CCC(Oc2cc(NC(=O)Nc3ccc(Oc4ccnc(NC(=O)C5CC5)c4)c(F)c3)cc(C(F)(F)F)c2)CC1 [Exe. 164] | 2950 | 71.5 | 30.7 | 198 | – | –
22 | CS(=O)(=O)Nc1cc(NC(=O)Nc2ccc(Oc3ccnc(NC(=O)C4CC4)c3)c(F)c2)cc(C(F)(F)F)c1 [Exe. 165] | 1070 | 6.6 | 5.5 | 41 | – | –
23 | O=C(Nc1cc(N2CCS(=O)(=O)CC2)cc(C(F)(F)F)c1)Nc1ccc(Oc2ccnc(NC(=O)C3CC3)c2)c(F)c1 [Exe. 166] | 1640 | 27 | 11.5 | 45.5 | – | –
24 | CN1CCN(Cc2cc(NC(=O)Nc3ccc(Oc4ccnc(NC(=O)C5CC5)c4)c(F)c3)cc(C(F)(F)F)c2)CC1 [Exe. 167] | 1230 | 23.8 | 16.1 | 262 | – | –
25 | CN1CCC(Nc2ccc(NC(=O)Nc3ccc(Oc4ccnc(NC(=O)C5CC5)c4)c(F)c3)cc2C(F)(F)F)CC1 [Exe. 168] | 31 | 7.9 | 12 | 11.6 | – | –
26 | O=C(Nc1ccc(Oc2ccnc(NC(=O)C3CC3)c2)c(F)c1)Nc1cc(C(F)(F)F)ncn1 [Exe. 170] | 230 | 96 | 5.6 | 31.6 | – | –
27 | O=C(Nc1cccc(OC(F)(F)F)c1)Nc1ccc(Oc2ccnc(NC(=O)C3CC3)c2)c(F)c1 [Exe. 175] | 270 | 9.8 | 4.9 | 30.5 | – | –
28 | O=C(Nc1ccc(OC(F)(F)F)cc1)Nc1ccc(Oc2ccnc(NC(=O)C3CC3)c2)c(F)c1 [Exe. 178] | 4880 | 34.7 | 5.3 | 159 | – | –
29 | CC(F)(F)c1ccc(F)c(NC(=O)Nc2ccc(Oc3ccnc(NC(=O)C4CC4)c3)c(F)c2)c1 [Exe. 181] | 23 | 4.8 | 7.1 | 25.7 | – | –
30 | CC(F)(F)c1cc(NC(=O)Nc2ccc(Oc3ccnc(NC(=O)C4CC4)c3)c(F)c2)ccc1Cl [Exe. 182] | 752 | 32 | 14.7 | 17 | – | –
31 | CC(F)(F)c1cc(NC(=O)Nc2ccc(Oc3ccnc(NC(=O)C4CC4)c3)c(F)c2)ccc1F [Exe. 183] | 230 | 56 | 13.6 | 15.7 | – | –
32 | O=C(Nc1ccc(Oc2ccnc(NC(=O)C3CC3)c2)c(F)c1)Nc1cc(Cl)ccc1F [Exe. 184] | 610 | 73.4 | 7.6 | 310 | – | –
33 | O=C(Nc1cc(-c2cccnc2)cc(C(F)(F)F)c1)Nc1ccc(Oc2ccnc(NC(=O)C3CC3)c2)c(F)c1 [Exe. 186] | 640 | 27.5 | 5 | 53.3 | – | –
34 | CC(C)Nc1cc(NC(=O)Nc2ccc(Oc3ccnc(NC(=O)C4CC4)c3)c(F)c2)cc(C(F)(F)F)c1 [Exe. 187] | 638 | 34.3 | 6.8 | 63.8 | – | –
35 | CN1CCC(Oc2ccc(NC(=O)Nc3ccc(Oc4ccnc(NC(=O)C5CC5)c4)c(F)c3)cc2C(F)(F)F)CC1 [Exe. 188] | 34 | 19 | 17.2 | 23.5 | – | –
36 | O=C(Nc1cc(N2CCOCC2)cc(C(F)(F)F)c1)Nc1ccc(Oc2ccnc(NC(=O)C3CC3)c2)c(F)c1 [Exe. 189] | 260 | 29.8 | 10.7 | 19.3 | – | –
37 | N#Cc1cc(NC(=O)Nc2ccc(Oc3ccnc(NC(=O)C4CC4)c3)c(F)c2)cc(C(F)(F)F)c1 [Exe. 190] | 875 | 87 | 11.9 | 74.3 | – | –
38 | Cc1cc(Oc2ccnc(NC(=O)C3CC3)c2)ccc1NC(=O)Nc1ccc(F)c(C(F)(F)F)c1 [Exe. 191] | 2530 | 10 | 11.8 | 9.4 | – | –
